# pIC50: −log10 of the molar value.
# Tests used:
# Wee-1 kinase = molecular target: T1, Wee-1 kinase (Homo sapiens, UniProt P30291); experiment: Measurement of Wee-1 kinase activity (ADP-Glo luminescent kit); format: biochemical
# T1 construct: purchased Invitrogen PV3817
# Outline: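 ADP-Glo luminescence reads ADP made over 1 h at RT, after an aliquot of 30 μM ATP and 2.0 μg/mL poly(Lys,Tyr 4:1) substrate. Before that, the kinase sat 30 min with inhibitor in Tris-HCl/MgCl2 buffer with BSA and DTT. IC50 came from regression of percent inhibition.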
# [1] = test system: phospho-cdc2 (Tyr15) in HT-29 cells; experiment: Effect on phosphorylation of cdc2 at Tyr15, PathScan ELISA (Method 2); format: cell-based; details: Homo sapiens, 8 h, eight hours incubation, read-out: HT29 pCDC2 method 2
# Protocol: Method 2: Determining the Effect of Compounds on the phosphorylation of cdc2 at Tyr15
# The colorectal cancer cell lines HT-29 and HCT-116 were purchased from the ATCC and routinely maintained in McCoy's Medium (Invitrogen) supplemented with 10% Foetal Calf Serum.
# The cells were trypsinised from their growing vessel and counted, 100 μL of cell suspension containing 6000 cells was pipetted into black 96 well Co-star plates and incubated overnight to allow adherence to the surface at a temperature of 37° C. and an atmosphere of 5% CO2. Test compounds were formulated in DMSO and diluted in foetal calf serum supplemented medium. Incubating medium was removed by aspiration and diluted drug supplemented medium added to each well.
# The plate was returned to the incubator for an additional eight hours at 37° C. and an atmosphere of 5% CO2. Post incubation, the drug supplemented medium was aspirated from each well and the cells were washed once in ice-cold phosphate buffered saline (PBS). 100 μL of cell lysis buffer (Cell Signalling Technologies #9803) containing 20 mM Tris, 150 mM NaCl, 1 mM EDTA, 1 mM EGTA, 1% Triton-X100, 2.5 mM sodium pyrophosphate, 1 mM glycerophosphate, 1 mM Na3VO4 and 1 μg/mL leupeptin was added to each well of the 96 well plate and incubated at 4° C. for 30 min. The samples on the plate were snap frozen at −80° C. until required. Immediately before the continuation of the assay, the sample plate was thawed and centrifuged at 4° C. for 10 min and the supernatant transferred to secondary tubes or 96 well plate.
# Cell supernatant was mixed in a ratio of 1:1 with sample dilutent buffer and vortexed for one minute. 100 μL of diluted sample was pipetted into pre-coated plates containing a rabbit polyclonal antibody for phospho-cdc2 (Tyr15) (Cell Signalling Technologies PathScan kit #7176). The plate was sealed and incubated overnight at 4° C.
# The plate seal was removed and the well contents aspirated, followed by 3×5 min washes with 200 μL of diluted wash buffer. Between each wash the plate was tapped firmly onto blotting paper to ensure the removal of all kit solution. 100 μL of kit detection antibody was added to each well and the plate re-sealed and incubated at 37° C. for 1 h. Post incubation the plate was washed and processed in a similar manner to that previously described.
# 100 μL of horseradish peroxidise-linked secondary antibody was added to each test well, the plate sealed and incubated for thirty minutes at 37° C. Post incubation, the plate was washed as previously stated, followed by the addition of 100 μL of 3,3′,5,5′ tetramethylbenzidine (TMB reagent). The plate was sealed and incubated at RT for 30 min.
# 100 μL of stop solution was added to each well and the underside of the plate wiped with a lint-free tissue, prior to spectrophotometric determination. Absorbance from each well was read at 450 nm within 30 min of the addition of the stop solution.
# The percentage of phospho-cdc2 was calculated compared to DMSO control and plotted versus the concentration of inhibitor using GraphPad Prism. Data was fitted using non-linear regression analysis and IC50 values generated.
# T1 sequence (P30291 whole entry): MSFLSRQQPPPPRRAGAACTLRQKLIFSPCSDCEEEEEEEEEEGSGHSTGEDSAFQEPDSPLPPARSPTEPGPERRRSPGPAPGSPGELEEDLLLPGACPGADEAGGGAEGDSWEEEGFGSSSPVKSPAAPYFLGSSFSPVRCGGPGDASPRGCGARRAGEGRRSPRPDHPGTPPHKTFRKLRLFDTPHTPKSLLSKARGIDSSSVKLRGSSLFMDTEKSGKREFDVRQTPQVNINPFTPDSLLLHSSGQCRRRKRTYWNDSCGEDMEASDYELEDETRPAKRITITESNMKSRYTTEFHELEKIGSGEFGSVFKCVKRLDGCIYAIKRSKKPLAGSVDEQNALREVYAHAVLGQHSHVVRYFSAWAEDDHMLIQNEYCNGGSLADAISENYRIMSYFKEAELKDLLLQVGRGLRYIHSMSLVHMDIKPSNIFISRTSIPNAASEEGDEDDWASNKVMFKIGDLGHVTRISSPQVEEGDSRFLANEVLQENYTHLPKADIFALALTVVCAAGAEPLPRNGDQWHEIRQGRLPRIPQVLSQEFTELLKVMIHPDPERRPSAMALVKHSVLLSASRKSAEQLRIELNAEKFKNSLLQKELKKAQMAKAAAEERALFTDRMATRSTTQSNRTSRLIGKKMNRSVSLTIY
Structure (SMILES),pIC50 (Wee-1 kinase),pIC50 [1]
"CN1CN(c2c(Cl)cccc2Cl)C(=O)c2cnc(Nc3ccc(N4CCNCC4)cc3)nc21 [Example 1, 3-(2,6-Dichlorophenyl)-1-methyl-7-((4-(piperazin-1-yl)phenyl)amino)-2,3-dihydropyrimido[4,5-d]pyrimidin-4(1H)-one]",≥ 8.00,6.00 to 7.00
"CNCCOc1ccc(Nc2ncc3c(n2)N(C)CN(c2c(Cl)cccc2Cl)C3=O)cc1 [Example 2, 3-(2,6-Dichlorophenyl)-1-methyl-7-((4-(2-(methylamino)ethoxy)phenyl)amino)-2,3-dihydropyrimido[4,5-d]pyrimidin-4(1H)-one]",≥ 8.00,6.00 to 7.00
"COc1cc(Nc2ncc3c(n2)N(C)CN(c2c(Cl)cccc2Cl)C3=O)ccc1N1CCNCC1 [Example 3, 3-(2,6-Dichlorophenyl)-7-((3-methoxy-4-(piperazin-1-yl)phenyl)amino)-1-methyl-2,3-dihydropyrimido[4,5-d]pyrimidin-4(1H)-one]",≥ 8.00,6.00 to 7.00
"CNCc1cc(Nc2ncc3c(n2)N(C)CN(c2c(Cl)cccc2Cl)C3=O)ccc1N1CCOCC1 [Example 5, 3-(2,6-Dichlorophenyl)-1-methyl-7-((3-((methylamino)methyl)-4-morpholinophenyl)amino)-2,3-dihydropyrimido[4,5-d]pyrimidin-4(1H)-one]",≥ 8.00,6.00 to 7.00
"Cc1cc(Nc2ncc3c(n2)N(C)CN(c2c(Cl)cccc2Cl)C3=O)ccc1N1CCNCC1 [Example 6, 3-(2,6-Dichlorophenyl)-1-methyl-7-((3-methyl-4-(piperazin-1-yl)phenyl)amino)-2,3-dihydropyrimido[4,5-d]pyrimidin-4(1H)-one]",≥ 8.00,≥ 7.00
"CN1CN(c2c(Cl)cccc2Cl)C(=O)c2cnc(Nc3ccc(N4CCNCC4)c(C#N)c3)nc21 [Example 11, 3-(2,6-Dichlorophenyl)-7-((3-cyano-4-(piperazin-1-yl)phenyl)amino)-1-methyl-2,3-dihydropyrimido[4,5-d]pyrimidin-4(1H)-one]",≥ 8.00,6.00 to 7.00
"CN1CN(c2c(Cl)cccc2Cl)C(=O)c2cnc(Nc3ccc(N4CCN(C(=O)CN)CC4)cc3)nc21 [Example 13, 7-((4-(4-(2-Aminoacetyl)piperazin-1-yl)phenyl)amino)-3-(2,6-dichlorophenyl)-1-methyl-2,3-dihydropyrimido[4,5-d]pyrimidin-4(1H)-one]",≥ 8.00,6.00 to 7.00
"CN1CN(c2c(Cl)cccc2Cl)C(=O)c2cnc(Nc3ccc4c(c3)CNCC4)nc21 [Example 14, 3-(2,6-Dichlorophenyl)-1-methyl-7-((1,2,3,4-tetrahydroisoquinolin-7-yl)amino)-2,3-dihydropyrimido[4,5-d]pyrimidin-4(1H)-one]",≥ 8.00,≥ 7.00
"[2H]C1([2H])N(C)c2nc(Nc3ccc(N4CCNCC4)cc3)ncc2C(=O)N1c1c(Cl)cccc1Cl [Example 15, 3-(2,6-Dichlorophenyl)-2,2-dideutero-1-methyl-7-((4-(piperazin-1-yl)phenyl)amino)-2,3-dihydropyrimido[4,5-d]pyrimidin-4(1H)-one]",≥ 8.00,≥ 7.00
"C[C@@H]1CN(c2ccc(Nc3ncc4c(n3)N(C)CN(c3c(Cl)cccc3Cl)C4=O)cc2)CCN1 [Example 16, (R)-3-(2,6-Dichlorophenyl)-1-methyl-7-((4-(3-methylpiperazin-1-yl)phenyl)amino)-2,3-dihydropyrimido[4,5-d]pyrimidin-4(1H)-one]",≥ 8.00,≥ 7.00
"C[C@H]1CN(c2ccc(Nc3ncc4c(n3)N(C)CN(c3c(Cl)cccc3Cl)C4=O)cc2)CCN1 [Example 17, (S)-3-(2,6-Dichlorophenyl)-1-methyl-7-((4-(3-methylpiperazin-1-yl)phenyl)amino)-2,3-dihydropyrimido[4,5-d]pyrimidin-4(1H)-one]",7.00 to 8.00,≥ 7.00
